Results: patent US20210392889A1, “COMPOSITIONS COMPRISING PYRIDINE CARBOXYLATE HERBICIDES WITH PDS INHIBITOR HERBICIDES” (Corteva Agriscience LLC, priority 2018, published 2021)

Assays:
Assay in all cases: Greenhouse postemergence herbicidal effect, visual injury after 20-22 d
Assay type in all cases: in vivo
[1] = tested on: giant foxtail (SETFA, Setaria faberi); conditions: Table 4
Method in brief: (§1)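 Plants grown in greenhouse (~14 h photoperiod, ~23/22 °C day/night) to the second or third true leaf stage were sprayed overhead at 187 L/ha with pyridine carboxylate herbicide (with cloquintocet-mexyl safener) alone or combined with a PDS inhibitor, in 1.25% v/v methylated/esterified seed oil. Injury versus solvent-blank controls was scored visually 0–100%.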

[2] = tested on: Russian thistle (SASKR, Salsola kali); conditions: for visual injury: Table 1
Method in brief: as §1

[3] = tested on: pigweed (AMARE, Amaranthus retroflexus); conditions: for visual injury: Table 1
Method in brief: as §1

For `N#CCOC(=O)c1nc(-c2ccc3cc[nH]c3c2F)c(F)c(N)c1Cl` [Compound A, cyanomethyl 4-amino-3-chloro-5-fluoro-6-(7-fluoro-1H-indol-6-yl)pyridine-2-carboxylate], the “visual injury Obs” value ([1]; 7.5 g/ha) was 70%, the “visual injury Obs” value ([1]; 10 g/ha) was 70% and the visual injury ([2]; 7.5 g/ha) was 60%. For the same compound, the “visual injury Obs” value ([2]; 7.5 g/ha, Table 2) was 45%, the “visual injury Obs” value ([2]; 7.5 g/ha, Table 3) was 38% and the “visual injury Obs” value ([2]; 7.5 g/ha, Table 8) was 55%. For the same compound, the visual injury ([2]; 10 g/ha) was 63%, the “visual injury Obs” value ([2]; 10 g/ha, Table 2) was 60% and the “visual injury Obs” value ([2]; 10 g/ha, Table 3) was 63%. The “visual injury Obs” value ([2]; 10 g/ha, Table 8) was 58%, the “visual injury Obs” value ([2]; 15 g/ha, Table 8) was 65% and the visual injury ([3]; 7.5 g/ha) was 78%. The “visual injury Obs” value ([3]; 7.5 g/ha, Table 3) was 70%, the “visual injury Obs” value ([3]; 7.5 g/ha, Table 5) was 80% and the “visual injury Obs” value ([3]; 7.5 g/ha, Table 6) was 80%. For the same compound, the “visual injury Obs” value ([3]; 7.5 g/ha, Table 7) was 70%, the “visual injury Obs” value ([3]; 7.5 g/ha, Table 8) was 78% and the visual injury ([3]; 10 g/ha) was 73%. For the same compound, the “visual injury Obs” value ([3]; 10 g/ha, Table 3) was 98%, the “visual injury Obs” value ([3]; 10 g/ha, Table 5) was 85% and the “visual injury Obs” value ([3]; 10 g/ha, Table 6) was 85%. The “visual injury Obs” value ([3]; 10 g/ha, Table 7) was 90%, the “visual injury Obs” value ([3]; 10 g/ha, Table 8) was 78% and the “visual injury Obs” value ([3]; 15 g/ha, Table 8) was 83%.
